pIC50: −log10 of the molar value.
Test system: IL-1β production in PMA-differentiated THP-1 cells
Experiment: IL-1β production in PMA-differentiated THP-1 cells stimulated with gramicidin (hTHP-1 assay, HTRF readout; Procedures 1-3)
Type: cell-based, human
Settings: Homo sapiens, THP-1, hTHP-1 assay containing 2% fetal bovine serum; average; class symbols; read-out: hTHP-1 IC50 (Average IC50 of compounds in hTHP-1 assay)
Protocol: The Following Protocol is Suitable for Testing the Activity of the Compounds Disclosed Herein. Procedure 1: IL-1B Production in PMA-Differentiated THP-1 Cells Stimulated with Gramicidin.
THP-1 cells were purchased from the American Type Culture Collection and sub-cultured according to instructions from the supplier. Cells were cultured in complete RPMI 1640 (containing 10% heat inactivated FBS, penicillin (100 units/ml) and streptomycin (100 μg/ml)), and maintained in log phase prior to experimental setup. Prior to the experiment, compounds were dissolved in dimethyl sulfoxide (DMSO) to generate a 30 mM stock. The compound stock was first pre-diluted in DMSO to 3, 0.34, 0.042 and 0.0083 mM intermediate concentrations and subsequently spotted using Echo550 liquid handler into an empty 384-well assay plate to achieve desired final concentration (e.g. 100, 33, 11, 3.7, 1.2, 0.41, 0.14, 0.046, 0.015, 0.0051, 0.0017 μM). DMSO was backfilled in the plate to achieve a final DMSO assay concentration of 0.37%. The plate was then sealed and stored at room temperature until required.
THP-1 cells were treated with PMA (Phorbol 12-myristate 13-acetate) (20 ng/ml) for 16-18 hours. On the day of the experiment the media was removed and adherent cells were detached with trypsin for 5 minutes. Cells were then harvested, washed with complete RPMI 1640, spun down, and resuspended in RPMI 1640 (containing 2% heat inactivated FBS, penicillin (100 units/ml) and streptomycin (100 μg/ml). The cells were plated in the 384-well assay plate containing the spotted compounds at a density of 50,000 cells/well (final assay volume 50 μl). Cells were incubated with compounds for 1 hour and then stimulated with gramicidin (5 μM) (Enzo) for 2 hours. Plates were then centrifuged at 340 g for 5 min. Cell free supernatant (40 μL) was collected using a 96-channel PlateMaster (Gilson) and the production of IL-1β was evaluated by HTRF (cisbio). The plates were incubated for 18 h at 4° C. and read using the preset HTRF program (donor emission at 620 nm, acceptor emission at 668 nm) of the SpectraMax i3x spectrophotometer (Molecular Devices, software SoftMax 6). A vehicle only control and a dose titration of CRID3 (100-0.0017 μM) were run concurrently with each experiment.
Procedure 2: IL-1β Production in PMA-Differentiated THP-1 Cells Stimulated with Gramicidin.
THP-1 cells were purchased from the American Type Culture Collection and sub-cultured according to instructions from the supplier. Prior to experiments, cells were cultured in complete RPMI 1640 (containing 10% heat inactivated FBS, penicillin (100 units/ml) and streptomycin (100 μg/ml)), and maintained in log phase prior to experimental setup. Prior to the experiment THP-1 were treated with PMA (Phorbol 12-myristate 13-acetate) (20 ng/ml) for 16-18 hours. Compounds were dissolved in dimethyl sulfoxide (DMSO) to generate a 30 mM stock.
On the day of the experiment the media was removed and adherent cells were detached with trypsin for 5 minutes. Cells were then harvested, washed with complete RPMI 1640, spun down, resuspended in RPMI 1640 (containing 2% heat inactivated FBS, penicillin (100 units/ml) and streptomycin (100 μg/ml). The cells were plated in a 384-well plate at a density of 50,000 cells/well (final assay volume 50 μl). Compounds were first dissolved in assay medium to obtain a 5× top concentration of 500 μM. 10 step dilutions (1:3) were then undertaken in assay medium containing 1.67% DMSO. 5× compound solutions were added to the culture medium to achieve desired final concentration (e.g. 100, 33, 11, 3.7, 1.2, 0.41, 0.14, 0.046, 0.015, 0.0051, 0.0017 μM). Final DMSO concentration was at 0.37%. Cells were incubated with compounds for 1 hour and then stimulated with gramicidin (5 μM) (Enzo) for 2 hours. Plates were then centrifuged at 340 g for 5 min. Cell free supernatant (40 μL) was collected using a 96-channel PlateMaster (Gilson) and the production of IL-1β was evaluated by HTRF (cisbio). […]

Q: How did the pIC50 turn out when `CC(C)c1cc(C#N)cc(C(C)C)c1NC(=O)N=S(N)(=O)c1ccc(S(C)(=O)=O)cc1` (single isomer, unassigned) [Example 196, (S)- or (R)-N′-((4-cyano-2,6-diisopropylphenyl)carbamoyl)-4-(methylsulfonyl)-benzenesulfonimidamide] was run?
A: 4.52 to 5.30

Q: With `CC(C)c1cc(C#N)cc(C(C)C)c1NC(=O)N=S(N)(=O)c1cc(C(C)(C)O)cc(C(C)(C)O)c1` (single isomer, unassigned) [Example 198, N′-((4-cyano-2,6-diisopropylphenyl)carbamoyl)-3,5-bis-(2-hydroxypropan-2-yl)benzenesulfonimidamide] as the molecule, how does the pIC50 read?
A: 4.52 to 5.30

Q: `C#CCCC(=O)N(C)Cc1ccc(S(N)(=O)=NC(=O)Nc2c3c(cc4c2CCC4)CCC3)cc1` (single isomer, unassigned) [Example 312, (S) or (R)-N-(4-(N′-((1,2,3,5,6,7-hexahydro-s-indacen-4-yl)carbamoyl)sulfamid-imidoyl)benzyl)-N-methylpent-4-ynamide] was tested. Which pIC50 did it give?
A: 5.30 to 6.00

Q: How did the pIC50 turn out when `CCc1ccc2cn[nH]c2c1NC(=O)N=S(N)(=O)c1cnc(C(C)(C)O)s1` (single isomer, unassigned) [Example 326, (R) or (S)-N′-((6-ethyl-1H-indazol-7-yl)carbamoyl)-2-(2-hydroxypropan-2-yl)thiazole-5-sulfonimidamide] was run?
A: 4.52 to 5.30

Q: With `CCc1ccc2cnn(C)c2c1NC(=O)N=S(N)(=O)c1ncc(C(C)(C)O)s1` (single isomer, unassigned) [Example 328, (R) or (S)-N′-((6-ethyl-1-methyl-1H-indazol-7-yl)carbamoyl)-5-(2-hydroxypropan-2-yl)thiazole-2-sulfonimidamide] as the molecule, how does the pIC50 read?
A: 5.30 to 6.00

Q: With `CC(C)(O)c1ncc(S(N)(=O)=NC(=O)Nc2c3c(cc4c2CCC4O)CCC3)s1` (single isomer, unassigned) [Example 337, (R, R) or (R, S)-N′-((l-hydroxy-1,2,3,5,6,7-hexahydro-s-indacen-4-yl)carbamoyl)-2-(2-hydroxypropan-2-yl)thiazole-5-sulfonimidamide] as the molecule, how does the pIC50 read?
A: 5.30 to 6.00

Q: `CN(C)S(=O)(=NC(=O)Nc1c2c(cc3c1CCC3)CCC2)c1cc(C(C)(C)O)cs1` (single isomer, unassigned) [Example 357, (R) or (S)-N′-((1,2,3,5,6,7-hexahydro-s-indacen-4-yl)carbamoyl)-4-(2-hydroxypropan-2-yl)-N,N-dimethylthiophene-2-sulfonimidamide] was tested. Which pIC50 did it give?
A: 4.52 to 5.30

Same assay, conditions: Homo sapiens, THP-1, hTHP-1 assay containing 2% fetal bovine serum; average; given as bound; read-out: hTHP-1 IC50 (Average IC50 of compounds in hTHP-1 assay)

Q: `CC(C)c1cc(C#N)cc(C(C)C)c1NC(=O)N=S(N)(=O)c1sc(C(C)(C)O)nc1CO` (single isomer, unassigned) [Example 193, (R)- or (S)-N′-((4-cyano-2,6-diisopropylphenyl)carbamoyl)-4-(hydroxymethyl)-2-(2-hydroxypropan-2-yl)thiazole-5-sulfonimidamide] was tested. Which pIC50 did it give?
A: < 4.52

Q: `CC(C)c1cc(C#N)cc(C(C)C)c1NC(=O)N=S(N)(=O)c1ccc(S(C)(=O)=O)cc1` (single isomer, unassigned) [Example 197, (R)- or (S)-N′-((4-cyano-2,6-diisopropylphenyl)carbamoyl)-4-(methyl-sulfonyl)benzenesulfonimidamide] was tested. Which pIC50 did it give?
A: < 4.52

Q: `CC(C)c1cc(C#N)cc(C(C)C)c1NC(=O)N=S(N)(=O)c1cc(C(C)(C)O)cc(C(C)(C)O)c1` (single isomer, unassigned) [Example 199, N′-((4-cyano-2,6-diisopropylphenyl)carbamoyl)-3,5-bis-(2-hydroxypropan-2-yl)benzenesulfonimidamide] was tested. Which pIC50 did it give?
A: < 4.52

Q: `CCc1ccc2cnn(C)c2c1NC(=O)N=S(N)(=O)c1ncc(C(C)(C)O)s1` (single isomer, unassigned) [Example 327, (S) or (R)-N′-((6-ethyl-1-methyl-1H-indazol-7-yl)carbamoyl)-5-(2-hydroxypropan-2-yl)thiazole-2-sulfonimidamide] was tested. Which pIC50 did it give?
A: < 4.52

Q: How did the pIC50 turn out when `CCc1ccc2cn(C)nc2c1NC(=O)N=S(N)(=O)c1ncc(C(C)(C)O)s1` (single isomer, unassigned) [Example 329, (S) or (R)-N′-((6-ethyl-2-methyl-2H-indazol-7-yl)carbamoyl)-5-(2-hydroxypropan-2-yl)thiazole-2-sulfonimidamide] was run?
A: < 4.52

Q: How did the pIC50 turn out when `CN(C)S(=O)(=NC(=O)Nc1c2c(cc3c1CCC3)CCC2)c1cc(C(C)(C)O)cs1` (single isomer, unassigned) [Example 358, (S) or (R) -N′-((1,2,3,5,6,7-hexahydro-s-indacen-4-yl)carbamoyl)-4-(2-hydroxypropan-2-yl)-N,N-dimethylthiophene-2-sulfonimidamide] was run?
A: < 4.52

Same assay, conditions: Homo sapiens, THP-1, hTHP-1 assay containing 2% fetal bovine serum; average; numeric bound printed without unit; read-out: hTHP-1 IC50 (Average IC50 of compounds in hTHP-1 assay)

Q: With `CCc1ccc2cn[nH]c2c1NC(=O)N=S(N)(=O)c1cnc(C(C)(C)O)s1` (single isomer, unassigned) [Example 325, (S) or (R)-N′-((6-ethyl-1H-indazol-7-yl)carbamoyl)-2-(2-hydroxypropan-2-yl)thiazole-5-sulfonimidamide] as the molecule, how does the pIC50 read?
A: < 4.55

Same assay, conditions: hTHP-1 assay containing 2% fetal bovine serum; average; class symbols; read-out: hTHP-1 IC50 (Average IC50 of compounds in hTHP-1 assay)

Q: `CC(C)(O)c1ncc([S@](N)(=O)=NC(=O)Nc2c3c(cc4c2CC4)CCC3)s1` (single isomer, unassigned) [Example 224] was tested. Which pIC50 did it give?
A: 7.40 to 8.10

Q: With `CC(C)(O)c1ncc([S@@](N)(=O)=NC(=O)Nc2c3c(cc4c2CC4)CCC3)s1` (single isomer, unassigned) [Example 225] as the molecule, how does the pIC50 read?
A: 5.30 to 6.00

Q: `C#CCCC(=O)N(C)Cc1ccc(S(N)(=O)=NC(=O)Nc2c3c(cc4c2CCC4)CCC3)cc1` (single isomer, unassigned) [Example 313, (R) or (S)-N-(4-(N′-((1,2,3,5,6,7-hexahydro-s-indacen-4-yl)carbamoyl)sulfamid-imidoyl)benzyl)-N-methylpent-4-ynamide] was tested. Which pIC50 did it give?
A: 5.30 to 6.00

Q: How did the pIC50 turn out when `CC(C)(O)c1ncc(S(N)(=O)=NC(=O)Nc2c3c(cc4c2CCC4O)CCC3)s1` (single isomer, unassigned) [Example 338, (R, S) or (R, R)-N′-((1-hydroxy-1,2,3,5,6,7-hexahydro-s-indacen-4-yl)carbamoyl)-2-(2-hydroxypropan-2-yl)thiazole-5-sulfonimidamide] was run?
A: 5.30 to 6.00

Q: How did the pIC50 turn out when `CC(C)(O)c1ncc(S(N)(=O)=NC(=O)Nc2c3c(cc4c2CCC4O)CCC3)s1` (single isomer, unassigned) [Example 339, (S, S) or (S, R)-N′-((l-hydroxy-1,2,3,5,6,7-hexahydro-s-indacen-4-yl)carbamoyl)-2-(2-hydroxypropan-2-yl)thiazole-5-sulfonimidamide] was run?
A: 5.30 to 6.00

Q: How did the pIC50 turn out when `CC(C)(O)c1ncc(S(N)(=O)=NC(=O)Nc2c3c(cc4c2CCC4O)CCC3)s1` (single isomer, unassigned) [Example 340, (S, R) or (S, S)-N′-((1-hydroxy-1,2,3,5,6,7-hexahydro-s-indacen-4-yl)carbamoyl)-2-(2-hydroxypropan-2-yl)thiazole-5-sulfonimidamide] was run?
A: 5.30 to 6.00

Same assay, conditions: hTHP-1 assay containing 2% fetal bovine serum; average; given as bound; read-out: hTHP-1 IC50 (Average IC50 of compounds in hTHP-1 assay)

Q: With `CCc1ccc2cn(C)nc2c1NC(=O)N=S(N)(=O)c1ncc(C(C)(C)O)s1` (single isomer, unassigned) [Example 330, (R) or (S)-N′-((6-ethyl-2-methyl-2H-indazol-7-yl)carbamoyl)-5-(2-hydroxypropan-2-yl)thiazole-2-sulfonimidamide] as the molecule, how does the pIC50 read?
A: < 4.52
